Data from patent publication US20240425500A1 (priority 2021, published 2024).

How the values were obtained:
Phytophthora infestans = assay: whole plant or invertebrate; type: in vivo; settings: in Solanum lycopersicum, foliar, read-out: control of Phytophthora infestans compared to untreated control
Pythium ultimum = Pythium ultimum / liquid culture (seedling damping off); type: cell-based; settings: Globisporangium ultimum, liquid culture in PDB, 24 °C, 2-3 days after application, read-out: control of Pythium ultimum (inhibition of growth, photometric) compared to untreated control
Method: Pythium ultimum/Liquid Culture (Seedling Damping Off):
Mycelia fragments and oospores of a newly grown liquid culture of the fungus are directly mixed into nutrient broth (PDB potato dextrose broth). After placing a (DMSO) solution of test compound into a microtiter plate (96-well format), the nutrient broth containing the fungal mycelia/spore mixture is added. The test plates are incubated at 24° C. and the inhibition of growth is determined photometrically 2-3 days after application.

Plasmopara viticola = assay: whole plant or invertebrate; type: in vivo; settings: foliar, read-out: control of Plasmopara viticola compared to untreated control

Molecule `COC(=O)Nc1ccc(-c2cnc3c(NC(C)=O)cc(C(=O)N(C)c4ccc(F)c(OC)c4)cn23)cn1` [Compound 169, methyl N-[5-[8-acetamido-6-[(4-fluoro-3-methoxy-phenyl)-methyl-carbamoyl]imidazo[1,2-a]pyridin-3-yl]-2-pyridyl]carbamate] has a pest or weed control at 200 ppm (Phytophthora infestans) of no less than 80%, an inhibition at 20 ppm (Pythium ultimum) of no less than 80% and a pest or weed control at 200 ppm (Plasmopara viticola) of no less than 80%.

Molecule `COC(=O)Nc1ccc(-c2cnc3ccc(C(=O)N(C)c4ccc(F)c(OC)c4)cn23)cc1` [Compound 158, methyl N-[4-[6-[(4-fluoro-3-methoxy-phenyl)-methyl-carbamoyl]imidazo[1,2-a]pyridin-3-yl]phenyl]carbamate] has a pest or weed control at 200 ppm (Phytophthora infestans) of no less than 80%, an inhibition at 20 ppm (Pythium ultimum) of no less than 80% and a pest or weed control at 200 ppm (Plasmopara viticola) of no less than 80%.

Work on `COC(=O)Nc1ccc(-c2cnc3ccc(C(=O)N(c4ccc(F)cc4)C4CC4)cn23)cn1` [Compound 110, methyl N-[5-[6-[cyclopropyl-(4-fluorophenyl)carbamoyl]imidazo [1,2-a]pyridin-3-yl]-2-pyridyl]carbamate] yielded a pest or weed control at 200 ppm (Phytophthora infestans) of no less than 80%, an inhibition at 20 ppm (Pythium ultimum) of no less than 80% and a pest or weed control at 200 ppm (Plasmopara viticola) of no less than 80%.

`COC(=O)Nc1ccc(-c2cnc3ccc(C(=S)N(C)c4ccc(F)cc4)cn23)cn1` [Compound 164, methyl N-[5-[6-[(4-fluorophenyl)-methyl-carbamothioyl]imidazo[1,2-a]pyridin-3-yl]-2-pyridyl]carbamate] showed a pest or weed control at 200 ppm (Phytophthora infestans) of no less than 80%, an inhibition at 20 ppm (Pythium ultimum) of no less than 80% and a pest or weed control at 200 ppm (Plasmopara viticola) of no less than 80%.

`COCCN(C(=O)c1ccc2ncc(-c3ccc(NC(=O)OC)nc3)n2c1)c1ccc(F)c(OC)c1` [Compound 173, methyl N-[5-[6-[(4-fluoro-3-methoxy-phenyl)-(2-methoxyethyl)carbamoyl]imidazo[1,2-a]pyridin-3-yl]-2-pyridyl]carbamate] showed a pest or weed control at 200 ppm (Phytophthora infestans) of no less than 80%, an inhibition at 20 ppm (Pythium ultimum) of no less than 80% and a pest or weed control at 200 ppm (Plasmopara viticola) of no less than 80%.

Work on `COCN(C(=O)c1cc(C)c2ncc(-c3ccc(NC(=O)OC)nc3)n2c1)c1ccc(F)c(OC)c1` [Compound 94, methyl N-[5-[6-[(4-fluoro-3-methoxy-phenyl)-(methoxymethyl)carbamoyl]-8-methyl-imidazo[1,2-a]pyridin-3-yl]-2-pyridyl]carbamate] yielded a pest or weed control at 200 ppm (Phytophthora infestans) of no less than 80%, an inhibition at 20 ppm (Pythium ultimum) of no less than 80% and a pest or weed control at 200 ppm (Plasmopara viticola) of no less than 80%.

For `CCN(C(=O)c1ccc2ncc(-c3ccc(NC(=O)OC)nc3)n2c1)c1ccc(F)cc1` [Compound 136, methyl N-[5-[6-[ethyl-(4-fluorophenyl)carbamoyl]imidazo[1,2-a]pyridin-3-yl]-2-pyridyl]carbamate], the pest or weed control at 200 ppm (Phytophthora infestans) was no less than 80%, the inhibition at 20 ppm (Pythium ultimum) was no less than 80% and the pest or weed control at 200 ppm (Plasmopara viticola) was no less than 80%.

For `COC(=O)Nc1ccc(-c2cnc3c(Cl)cc(C(=O)N(C)c4ccc(F)cc4)cn23)cn1` [Compound 85, methyl N-[5-[8-chloro-6-[(4-fluorophenyl)-methyl-carbamoyl]imidazo[1,2-a]pyridin-3-yl]-2-pyridyl]carbamate], the pest or weed control at 200 ppm (Phytophthora infestans) was no less than 80%, the inhibition at 20 ppm (Pythium ultimum) was no less than 80% and the pest or weed control at 200 ppm (Plasmopara viticola) was no less than 80%.

Work on `COC(=O)Nc1ccc(-c2cnc3c(C)cc(C(=O)N(C)c4ccc(F)c(OC)c4)cn23)cn1` [Compound 95, methyl N-[5-[6-[(4-fluoro-3-methoxy-phenyl)-methyl-carbamoyl]-8-methyl-imidazo[1,2-a]pyridin-3-yl]-2-pyridyl]carbamate] yielded a pest or weed control at 200 ppm (Phytophthora infestans) of no less than 80%, an inhibition at 20 ppm (Pythium ultimum) of no less than 80% and a pest or weed control at 200 ppm (Plasmopara viticola) of no less than 80%.

In the case of `COC(=O)Nc1ccc(-c2cnc3ccc(C(=O)N(C)c4ccc(F)c(F)c4)cn23)cn1` [Compound 50, methyl N-[5-[6-[(3,4-difluorophenyl)-methyl-carbamoyl]imidazo[1,2-a]pyridin-3-yl]-2-pyridyl]carbamate], the pest or weed control at 200 ppm (Phytophthora infestans) is reported as no less than 80%, the inhibition at 20 ppm (Pythium ultimum) is reported as no less than 80% and the pest or weed control at 200 ppm (Plasmopara viticola) is reported as no less than 80%.

`COC(=O)Nc1ccc(-c2cnc3ccc(C(=O)N(C)c4ccc(C#N)cc4)cn23)cn1` [Compound 15, methyl N-[5-[6-[(4-cyanophenyl)-methyl-carbamoyl]imidazo[1,2-a]pyridin-3-yl]-2-pyridyl]carbamate] was tested, and the pest or weed control at 200 ppm (Phytophthora infestans) was no less than 80%, the inhibition at 20 ppm (Pythium ultimum) was no less than 80% and the pest or weed control at 200 ppm (Plasmopara viticola) was no less than 80%.

`COC(=O)Nc1ccc(-c2cnc3ccc(C(=O)N(C)c4ccc(F)c(Cl)c4)cn23)cn1` [Compound 113, methyl N-[5-[6-[(3-chloro-4-fluoro-phenyl)-methyl-carbamoyl]imidazo[1,2-a]pyridin-3-yl]-2-pyridyl]carbamate] gave a pest or weed control at 200 ppm (Phytophthora infestans) of no less than 80%, an inhibition at 20 ppm (Pythium ultimum) of no less than 80% and a pest or weed control at 200 ppm (Plasmopara viticola) of no less than 80%.

`CCN(C(=O)c1ccc2ncc(-c3ccc(NC(=O)OC)nc3)n2c1)c1ccccc1` [Compound 137, methyl N-[5-[6-[ethyl(phenyl)carbamoyl]imidazo[1,2-a]pyridin-3-yl]-2-pyridyl]carbamate] was tested, and the inhibition at 20 ppm (Pythium ultimum) was no less than 80% and the pest or weed control at 200 ppm (Plasmopara viticola) was no less than 80%.

Work on `CC(=O)Nc1ccc(-c2cnc3ccc(C(=O)N(C)c4ccc(Cl)cc4)cn23)cc1` [Compound 1, 3-(4-acetamidophenyl)-N-(4-chlorophenyl)-N-methyl-imidazo[1,2-a]pyridine-6-carboxamide] yielded an inhibition at 20 ppm (Pythium ultimum) of no less than 80% and a pest or weed control at 200 ppm (Plasmopara viticola) of no less than 80%.

Work on `COC(=O)Nc1ccc(-c2cnc3ccc(C(=O)N(C)c4ccccc4)cn23)cn1` [Compound 61, methyl N-[5-[6-[methyl(phenyl)carbamoyl]imidazo[1,2-a]pyridin-3-yl]-2-pyridyl]carbamate] yielded an inhibition at 20 ppm (Pythium ultimum) of no less than 80% and a pest or weed control at 200 ppm (Plasmopara viticola) of no less than 80%.

Molecule `COCCN(C(=O)c1cc(C)c2ncc(-c3ccc(NC(=O)OC)nc3)n2c1)c1ccc(F)c(OC)c1` [Compound 177, methyl N-[5-[6-[(4-fluoro-3-methoxy-phenyl)-(2-methoxyethyl)carbamoyl]-8-methyl-imidazo[1,2-a]pyridin-3-yl]-2-pyridyl]carbamate] has a pest or weed control at 200 ppm (Phytophthora infestans) of no less than 80% and a pest or weed control at 200 ppm (Plasmopara viticola) of no less than 80%.

With `COC(=O)Nc1ccc(-c2cnc3ccc(C(=O)N(C)c4ccc(C)cc4)cn23)cn1` [Compound 64, methyl N-[5-[6-[methyl (p-tolyl)carbamoyl]imidazo [1,2-a]pyridin-3-yl]-2-pyridyl]carbamate] the inhibition at 20 ppm (Pythium ultimum) was no less than 80% and the pest or weed control at 200 ppm (Plasmopara viticola) was no less than 80%.

`CC(=O)Nc1ccc(-c2cnc3c(C)cc(C(=O)N(C)c4ccc(F)cc4)cn23)cn1` [Compound 168, 3-(6-acetamido-3-pyridyl)-N-(4-fluorophenyl)-N,8-dimethyl-imidazo[1,2-a]pyridine-6-carboxamide] was tested, and the pest or weed control at 200 ppm (Phytophthora infestans) was no less than 80% and the inhibition at 20 ppm (Pythium ultimum) was no less than 80%.

In the case of `C#Cc1cccc(N(C)C(=O)c2ccc3ncc(-c4ccc(NC(=O)OC)nc4)n3c2)c1` [Compound 43, methyl N-[5-[6-[(3-ethynylphenyl)-methyl-carbamoyl]imidazo[1,2-a]pyridin-3-yl]-2-pyridyl]carbamate], the pest or weed control at 200 ppm (Phytophthora infestans) is reported as no less than 80% and the inhibition at 20 ppm (Pythium ultimum) is reported as no less than 80%.

`CCCN(C(=O)c1ccc2ncc(-c3ccc(NC(=O)OC)nc3)n2c1)c1ccc(Cl)c(C)c1` [Compound 126, methyl N-[5-[6-[(4-chloro-3-methyl-phenyl)-propyl-carbamoyl]imidazo[1,2-a]pyridin-3-yl]-2-pyridyl]carbamate] was tested, and the inhibition at 20 ppm (Pythium ultimum) was no less than 80% and the pest or weed control at 200 ppm (Plasmopara viticola) was no less than 80%.

`CCC(=O)Nc1ccc(-c2cnc3ccc(C(=O)N(C)c4ccc(F)c(C)c4)cn23)cn1` [Compound 78, N-(4-fluoro-3-methyl-phenyl)-N-methyl-3-[6-(propanoylamino)-3-pyridyl]imidazo[1,2-a]pyridine-6-carboxamide] showed an inhibition at 20 ppm (Pythium ultimum) of no less than 80% and a pest or weed control at 200 ppm (Plasmopara viticola) of no less than 80%.

Work on `CNC(=O)c1cccc(N(C)C(=O)c2ccc3ncc(-c4ccc(NC(=O)OC)nc4)n3c2)c1` [Compound 115, methyl N-[5-[6-[methyl-[3-(methylcarbamoyl)phenyl]carbamoyl]imidazo[1,2-a]pyridin-3-yl]-2-pyridyl]carbamate] yielded a pest or weed control at 200 ppm (Phytophthora infestans) of no less than 80% and an inhibition at 20 ppm (Pythium ultimum) of no less than 80%.

`CNC(=O)Nc1ccc(-c2cnc3ccc(C(=O)N(C)c4ccc(F)c(OC)c4)cn23)cc1` [Compound 80, N-(4-fluoro-3-methoxy-phenyl)-N-methyl-3-[4-(methylcarbamoyl-amino)phenyl]imidazo[1,2-a]pyridine-6-carboxamide] was tested, and the pest or weed control at 200 ppm (Phytophthora infestans) was no less than 80% and the inhibition at 20 ppm (Pythium ultimum) was no less than 80%.

Molecule `COCCOc1cc(N(C)C(=O)c2ccc3ncc(-c4ccc(NC(=O)OC)nc4)n3c2)ccc1F` [Compound 77, methyl N-[5-[6-[[4-fluoro-3-(2-methoxyethoxy)phenyl]-methyl-carbamoyl]imidazo[1,2-a]pyridin-3-yl]-2-pyridyl]carbamate] has a pest or weed control at 200 ppm (Phytophthora infestans) of no less than 80% and an inhibition at 20 ppm (Pythium ultimum) of no less than 80%.

With `COC(=O)Nc1ccc(-c2cnc3ccc(C(=O)N(C)c4cc(OC)cc(OC)c4)cn23)cn1` [Compound 58, methyl N-[5-[6-[(3,5-dimethoxyphenyl)-methyl-carbamoyl]imidazo[1,2-a]pyridin-3-yl]-2-pyridyl]carbamate] the inhibition at 20 ppm (Pythium ultimum) was no less than 80% and the pest or weed control at 200 ppm (Plasmopara viticola) was no less than 80%.

For `COC(=O)Nc1ccc(-c2cnc3ccc(C(=O)N(C)c4cccc(OC(F)F)c4)cn23)cc1` [Compound 9, methyl N-[4-[6-[[3-(difluoromethoxy)phenyl]-methyl-carbamoyl]imidazo[1,2-a]pyridin-3-yl]phenyl]carbamate], the inhibition at 20 ppm (Pythium ultimum) was no less than 80% and the pest or weed control at 200 ppm (Plasmopara viticola) was no less than 80%.

`COC(=O)Nc1ccc(-c2cnc3ccc(C(=O)N(C)c4ccnc(F)c4)cn23)cn1` [Compound 71, methyl N-[5-[6-[(2-fluoro-4-pyridyl)-methyl-carbamoyl]imidazo[1,2-a]pyridin-3-yl]-2-pyridyl]carbamate] gave a pest or weed control at 200 ppm (Phytophthora infestans) of no less than 80% and an inhibition at 20 ppm (Pythium ultimum) of no less than 80%.
